Here are results for 18 molecules from patent publication US20250221988A1 (Cullgen (Shanghai), Inc., priority 2022, published 2025).

For one test, the system named is MV4;11 cells. The test can be described thus: Cell viability assay (CellTiter-Glo) in MV4;11 cells. The format is cell-based. The note with it: read-out: MV4. The procedure, abridged:
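5000 cells/well in RPMI 1640 or DMEM with 10% FBS, treated with 8- or 12-point 3-fold compound dilutions, with or without gilteritinib (10 nM for MV4;11, 20 nM for MOLM-13). Viability by CellTiter-Glo after three days; IC50 by nonlinear least-squares regression.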
(In general: ATP-based viability assays read luminescence as a measure of living cells.)

The next test relates to MOLM-13 cells. The experiment in a line: Cell viability assay (CellTiter-Glo) in MOLM-13 cells. It is filed as cell-based.
Where [1] appears, read: Homo sapiens, MV4-11, 72 h, MV4;11 cells, compound alone, three days, 11 IC50.
The mark [2] stands for this setting: MV4;11 cells, with 10 nM gilteritinib, three days, 11 IC50 (nM) + 10 nM Gil.
[3] abbreviates: Homo sapiens, 72 h, MOLM-13 cells, compound alone, three days, read-out: MOLM-13 IC50.
The mark [4] stands for this setting: MOLM-13 cells, with gilteritinib, three days, read-out: MOLM-13 IC50 (nM) + 10 nM Gil.

The structures appear in SMILES notation. Read-outs that look alike come from different tables or passages of the source.

As to `O=C1CCC(N2C(=O)c3ccc(NCCC4CC5(C4)CC(n4cc(-c6cnc7ccccc7n6)c(C6CC6)n4)C5)cc3C2=O)C(=O)N1` (stereo not shown) [GS-724, 5-((2-(6-(3-Cyclopropyl-4-(quinoxalin-2-yl)-1H-pyrazol-1-yl)spiro[3.3]heptan-2-yl)ethyl)amino)-2-(2,6-dioxopiperidin-3-yl)isoindoline-1,3-dione], the IC50 in the test on MV4;11 cells (setting [1]) is < 10 nM; in the test with MV4;11 cells (setting [2]), < 10 nM; in the test on MOLM-13 cells (setting [3]) it was 10 to 100 nM; in the test with MOLM-13 cells (setting [4]), < 10 nM.
As for `Cc1cccc(-c2cn(C3CC4(CC(CCNc5ccc6c(c5)C(=O)N(C5CCC(=O)NC5=O)C6=O)C4)C3)nc2C2CC2)n1` (stereo not shown) [GS-749, 5-((2-(6-(3-Cyclopropyl-4-(6-methylpyridin-2-yl)-1H-pyrazol-1-yl)spiro[3.3]heptan-2-yl)ethyl)amino)-2-(2,6-dioxopiperidin-3-yl)isoindoline-1,3-dione], the IC50 is 10 to 100 nM in the test on MV4;11 cells (setting [1]), < 10 nM in the test with MV4;11 cells (setting [2]), 10 to 100 nM with MOLM-13 cells (setting [3]) and < 10 nM with MOLM-13 cells (setting [4]). In the test on MOLM-13 cells (MOLM-13 cells, with or without 20 nM gilteritinib, 3 days), the “sensitization of AML cells to GSPT1 degraders by FLT3 inhibition” value is recorded as “FLT3 inhibition sensitizes AML cells”.
With `Cn1ncc2nc(-c3cn([C@H]4C[C@H](CNc5ccc6c(c5)C(=O)N(C5CCC(=O)NC5=O)C6=O)C4)nc3C3CC3)ccc21` (stereo partly drawn) [GS-699, 5-(((Trans-3-(3-cyclopropyl-4-(1-methyl-1H-pyrazolo[4,3-b]pyridin-5-yl)-1H-pyrazol-1-yl)cyclobutyl)methyl)amino)-2-(2,6-dioxopiperidin-3-yl)isoindoline-1,3-dione], the IC50 with MV4;11 cells (setting [1]) is 10 to 100 nM; in the test on MV4;11 cells (setting [2]), 10 to 100 nM; in the test on MOLM-13 cells (setting [3]) it was 100 to 1000 nM; with MOLM-13 cells (setting [4]) it was 10 to 100 nM.
Take `COC1CCCCC1c1cn([C@H]2C[C@H](CNc3ccc4c(c3)C(=O)N(C3CCC(=O)NC3=O)C4=O)C2)nc1C1CC1` (stereo partly drawn) [GS-646, 5-(((Trans-3-(3-cyclopropyl-4-(2-methoxycyclohexyl)-1H-pyrazol-1-yl)cyclobutyl)methyl)amino)-2-(2,6-dioxopiperidin-3-yl)isoindoline-1,3-dione]: the IC50 with MV4;11 cells (setting [1]) fell in the range of 10 to 100 nM; with MV4;11 cells (setting [2]), 10 to 100 nM; in the test on MOLM-13 cells (setting [3]), 100 to 1000 nM; in the test with MOLM-13 cells (setting [4]), 10 to 100 nM.
`CC(C)n1cnc2cnc(-c3cn([C@H]4C[C@H](CNc5ccc6c(c5)C(=O)N(C5CCC(=O)NC5=O)C6=O)C4)nc3C3CC3)cc21` (stereo partly drawn) [GS-664, 5-(((Trans-3-(3-cyclopropyl-4-(1-isopropyl-1H-imidazo[4,5-c]pyridin-6-yl)-1H-pyrazol-1-yl)cyclobutyl)methyl)amino)-2-(2,6-dioxopiperidin-3-yl)isoindoline-1,3-dione]: the IC50 in the test with MV4;11 cells (Homo sapiens, MV4-11, 72 h, 11 IC50 (nM)) was > 1000 nM; in the test on MV4;11 cells (11 IC50 (nM) + 10 nM Gil, MV4;11 cells, with 10 nM gilteritinib, three days), 100 to 1000 nM; in the test with MOLM-13 cells (Homo sapiens, MOLM-13, 72 h, read-out: MOLM-13 IC50 (nM)), > 1000 nM; in the test on MOLM-13 cells (read-out: MOLM-13 IC50 (nM) + 10 nM Gil, MOLM-13 cells, with gilteritinib, three days) it was 100 to 1000 nM.
Take `Cc1cccc(-c2cn(C3CC4(CC(CNc5ccc6c(c5)C(=O)N(C5CCC(=O)NC5=O)C6=O)C4)C3)nc2C2CC2)n1` (stereo not shown) [GS-775]: the IC50 in the test on MV4;11 cells (setting [1]) was 100 to 1000 nM; with MV4;11 cells (setting [2]), 100 to 1000 nM; with MOLM-13 cells (setting [3]) it was > 1000 nM; in the test on MOLM-13 cells (setting [4]), 100 to 1000 nM.
On to `O=C1CCC(N2C(=O)c3ccc(NC[C@H]4C[C@H](n5cc(-c6ncc(F)cc6OC6CC6)c(C6CC6)n5)C4)cc3C2=O)C(=O)N1` (stereo partly drawn) [GS-752, 5-(((Trans-3-(4-(3-cyclopropoxy-5-fluoropyridin-2-yl)-3-cyclopropyl-1H-pyrazol-1-yl)cyclobutyl)methyl)amino)-2-(2,6-dioxopiperidin-3-yl)isoindoline-1,3-dione], for which the IC50 in the test on MV4;11 cells (setting [1]), in the test on MV4;11 cells (setting [2]), with MOLM-13 cells (setting [3]) and in the test with MOLM-13 cells (setting [4]) was < 10 nM in each case.
On to `O=C1CCC(N2C(=O)c3ccc(NC[C@H]4C[C@H](n5nc(C6CC6)c6c(N7CCNCC7)cccc65)C4)cc3C2=O)C(=O)N1` (stereo partly drawn) [GS-757, 5-(((Trans-3-(3-cyclopropyl-4-(piperazin-1-yl)-1H-indazol-1-yl)cyclobutyl)methyl)amino)-2-(2,6-dioxopiperidin-3-yl)isoindoline-1,3-dione], for which the IC50 in the test with MV4;11 cells (setting [1]) and with MOLM-13 cells (setting [3]) was > 1000 nM in each case.
`O=C1CCC(N2C(=O)c3ccc(NC[C@H]4C[C@H](n5cc(-c6ncc(F)cc6C6CCNCC6)c(C6CC6)n5)C4)cc3C2=O)C(=O)C1` (stereo partly drawn) [GS-686, 5-(((Trans-3-(3-cyclopropyl-4-(5-fluoro-3-(piperidin-4-yl)pyridin-2-yl)-1H-pyrazol-1-yl)cyclobutyl)methyl)amino)-2-(2,4-dioxocyclohexyl)isoindoline-1,3-dione]: the IC50 is > 1000 nM in the test with MV4;11 cells (setting [1]), 100 to 1000 nM in the test on MV4;11 cells (setting [2]), > 1000 nM in the test on MOLM-13 cells (setting [3]) and 100 to 1000 nM with MOLM-13 cells (setting [4]).
With `O=C1CCC(N2C(=O)c3ccc(NC[C@H]4C[C@H](n5cc(-c6cnc7ccc(C8CC(O)C8)cc7n6)c(C6CC6)n5)C4)cc3C2=O)C(=O)N1` (stereo partly drawn) [GS-764, 5-(((Trans-3-(3-cyclopropyl-4-(7-(3-hydroxycyclobutyl)quinoxalin-2-yl)-1H-pyrazol-1-yl)cyclobutyl)methyl)amino)-2-(2,6-dioxopiperidin-3-yl)isoindoline-1,3-dione], the IC50 with MV4;11 cells (setting [1]), with MV4;11 cells (setting [2]), in the test on MOLM-13 cells (setting [3]) and in the test on MOLM-13 cells (setting [4]) was < 10 nM in each case.
For the molecule `O=C1CCC(N2C(=O)c3ccc(NC[C@H]4C[C@H](n5cc(-c6ccc7[nH]ccc7n6)c(C6CC6)n5)C4)cc3C2=O)C(=O)N1` (stereo partly drawn) [GS-720, 5-(((Trans-3-(3-cyclopropyl-4-(1H-pyrrolo[3,2-b]pyridin-5-yl)-1H-pyrazol-1-yl)cyclobutyl)methyl)amino)-2-(2,6-dioxopiperidin-3-yl)isoindoline-1,3-dione], the IC50 was 10 to 100 nM in the test on MV4;11 cells (setting [1]), 10 to 100 nM in the test with MV4;11 cells (setting [2]), 100 to 1000 nM in the test with MOLM-13 cells (setting [3]) and 10 to 100 nM in the test with MOLM-13 cells (setting [4]).
Regarding `O=C1CCC(N2C(=O)c3ccc(NC[C@H]4C[C@H](n5nc(C6CC6)c6nccnc65)C4)cc3C2=O)C(=O)N1` (stereo partly drawn) [GS-648, 5-(((Trans-3-(3-cyclopropyl-1H-pyrazolo[3,4-b]pyrazin-1-yl)cyclobutyl)methyl)amino)-2-(2,6-dioxopiperidin-3-yl)isoindoline-1,3-dione], the IC50 was > 1000 nM with MV4;11 cells (setting [1]), > 1000 nM with MOLM-13 cells (setting [3]) and 100 to 1000 nM in the test with MOLM-13 cells (setting [4]).
For `O=C1CCC(N2C(=O)c3ccc(NC[C@H]4C[C@H](n5cc(Nc6cccnc6)c(C6CC6)n5)C4)cc3C2=O)C(=O)N1` (stereo partly drawn) [GS-670, 5-(((Trans-3-(3-cyclopropyl-4-(pyridin-3-ylamino)-1H-pyrazol-1-yl)cyclobutyl)methyl)amino)-2-(2,6-dioxopiperidin-3-yl)isoindoline-1,3-dione], the IC50 with MV4;11 cells (setting [1]) is 10 to 100 nM; in the test with MV4;11 cells (setting [2]), 10 to 100 nM; in the test with MOLM-13 cells (setting [3]) it was 100 to 1000 nM; with MOLM-13 cells (setting [4]), 10 to 100 nM.
In the case of `Cc1nc(-c2cn(C3CC(O)(CNc4ccc5c(c4)C(=O)N(C4CCC(=O)NC4=O)C5=O)C3)nc2C2CC2)ccc1F` (stereo not drawn) [GS-760, 5-(((trans-3-(3-cyclopropyl-4-(5-fluoro-6-methylpyridin-2-yl)-1H-pyrazol-1-yl)-1-hydroxycyclobutyl)methyl)amino)-2-(2,6-dioxopiperidin-3-yl)isoindoline-1,3-dione], the IC50 with MV4;11 cells (MV4;11 cells, compound alone, three days, 11 IC50) is > 1000 nM; with MOLM-13 cells (MOLM-13 cells, compound alone, three days, read-out: MOLM-13 IC50), > 1000 nM.
Take `Cc1cccc(-c2cn(C3CC4(CC(C(=O)NCc5ccc6c(c5)C(=O)N(C5CCC(=O)NC5=O)C6=O)C4)C3)nc2C2CC2)n1` (stereo not shown) [GS-774, 6-(3-Cyclopropyl-4-(6-methylpyridin-2-yl)-1H-pyrazol-1-yl)-N-((2-(2,6-dioxopiperidin-3-yl)-1,3-dioxoisoindolin-5-yl)methyl)spiro[3.3]heptane-2-carboxamide]: the IC50 in the test on MV4;11 cells (setting [1]) is 100 to 1000 nM; with MV4;11 cells (setting [2]), 10 to 100 nM; with MOLM-13 cells (setting [3]), > 1000 nM; with MOLM-13 cells (setting [4]), 100 to 1000 nM.
With `Cn1ncc2cnc(-c3cn([C@H]4C[C@H](CNc5ccc6c(c5)C(=O)N(C5CCC(=O)NC5=O)C6=O)C4)nc3C(F)F)cc21` (stereo partly drawn) [GS-657, 5-(((Trans-3-(3-(difluoromethyl)-4-(1-methyl-1H-pyrazolo[4,3-c]pyridin-6-yl)-1H-pyrazol-1-yl)cyclobutyl)methyl)amino)-2-(2,6-dioxopiperidin-3-yl)isoindoline-1,3-dione], the IC50 is 10 to 100 nM in the test on MV4;11 cells (setting [1]), < 10 nM with MV4;11 cells (setting [2]), 10 to 100 nM with MOLM-13 cells (setting [3]) and < 10 nM in the test on MOLM-13 cells (setting [4]).
For the molecule `CN1CC(c2ccc3nc(-c4cn([C@H]5C[C@H](CNc6ccc7c(c6)C(=O)N(C6CCC(=O)NC6=O)C7=O)C5)nc4C4CC4)cnc3c2)C1` (stereo partly drawn) [GS-755, 5-(((Trans-3-(3-cyclopropyl-4-(6-(1-methylazetidin-3-yl)quinoxalin-2-yl)-1H-pyrazol-1-yl)cyclobutyl)methyl)amino)-2-(2,6-dioxopiperidin-3-yl)isoindoline-1,3-dione], the IC50 in the test on MV4;11 cells (setting [1]) was 10 to 100 nM; with MV4;11 cells (setting [2]), < 10 nM; in the test with MOLM-13 cells (setting [3]), 10 to 100 nM; in the test on MOLM-13 cells (setting [4]), < 10 nM.
Take `O=C1CCC(N2C(=O)c3ccc(NC[C@H]4C[C@H](n5cc(NC6CCOCC6)c(C6CC6)n5)C4)cc3C2=O)C(=O)N1` (stereo partly drawn) [GS-708, 5-(((Trans-3-(3-cyclopropyl-4-((tetrahydro-2H-pyran-4-yl)amino)-1H-pyrazol-1-yl)cyclobutyl)methyl)amino)-2-(2,6-dioxopiperidin-3-yl)isoindoline-1,3-dione]: the IC50 in the test with MV4;11 cells (setting [1]) was > 1000 nM; in the test on MOLM-13 cells (setting [3]) it was > 1000 nM; with MOLM-13 cells (setting [4]), 100 to 1000 nM.
